How the values were obtained:
HCT116-MTAP-KO = experiment: Cell killing in HCT116 isogenic pair (Cell Titer-Glo viability), MTAP knock-out cells; assay type: cell-based, human; conditions: Homo sapiens, HCT-116, 144 h, 6 days incubation, 0-10 μM, * = more than 50% viability inhibition at tested concentration without a full curve
Text: (§1) HCT116 cell line (ATCC, CCL-247) was isolated from the colon of an adult with colon cancer. It has a mutation in codon 13 of the ras proto-oncogene and can be used as a positive control for PCR assays of mutation in this codon. HCT116-MTAP-KO was knocked-out-MTAP-gene based HCT116, and a single clone was passed for this assay. HCT116-mock-RNA-KO was knocked-out-mock-gene based HCT116 with MTAP wildtype genotype. The base medium for HCT116 isogenic pair is RPMI 1640, HEPES (Gibco, 22400105). To make the complete growth medium, added the following components to the base medium: fetal bovine serum to a final concentration of 10% (Gibco, 10099-141C). The cell line was grown in a humidified 5% CO2 atmosphere at 37° C. and regularly tested for the presence of mycoplasma with MpcoAlert™ PLUS Mycoplasma Detection Kit (Lonzak LT07-710).
(§2) • Seeded HCT116-mock-RNA-KO (4E2/well) or HCT116-MTAP-KO (4E2/well) cells into a 96-well plate (Greiner: 655090), 100 μL/well. • Incubated at 37° C., 5% CO2, overnight. • Added 50 μL fresh growth medium containing serial dilution of test compounds for a final test compound concentration of 0-10 μM to each well. • Incubated at 37° C., 5% CO2, 6 days. • The cell viability was detected by Cell Titer-Glo (Promega, G7573). Added 70 μL of CeliTiter-Glo® reagent in each well. • Incubated at room temperature for 10 minutes to stabilize luminescent signal. • Analyzed with Microplate Reader (TECAN, SPARK) and fit IC50 using Prism® 9.

HCT116-mock-RNA-KO = experiment: Cell killing in HCT116 isogenic pair (Cell Titer-Glo viability), mock knock-out cells with MTAP wildtype genotype; assay type: cell-based, human; conditions: Homo sapiens, HCT-116, 144 h, 6 days incubation, 0-10 μM
Text: as §1, §2

Structure (SMILES): COC[C@@H](C)N(Cc1ccc(Br)cn1)C(=O)c1cc2nc(N)c3c(c2[nH]1)COC3 [Example 45, (R)-5-amino-N-((5-bromopyridin-2-yl)methyl)-N-(1-methoxypropan-2-yl)-6,8-dihydro-1H-furo[3,4-d]pyrrolo[3,2-b]pyridine-2-carboxamide]
- IC50 (HCT116-MTAP-KO): 7.2 nM
- IC50 (HCT116-mock-RNA-KO): 856 nM

Structure (SMILES): COC[C@@H](C)N(Cc1c(F)cc(C#N)cc1F)C(=O)c1cc2nc(N)c3c(c2[nH]1)COC3 [Example 46, (R)-5-amino-N-(4-cyano-2,6-difluorobenzyl)-N-(1-methoxypropan-2-yl)-6,8-dihydro-1H-furo[3,4-d]pyrrolo[3,2-b]pyridine-2-carboxamide]
- IC50 (HCT116-MTAP-KO): 9 nM
- IC50 (HCT116-mock-RNA-KO): 854 nM

Structure (SMILES): Nc1nc2cc(C(=O)N(Cc3ncccc3F)Cc3c(F)cc(F)cc3F)[nH]c2c2c1COC2 [Example 47, 5-amino-N-((3-fluoropyridin-2-yl)methyl)-N-(2,4,6-trifluorobenzyl)-6,8-dihydro-1H-furo[3,4-d]pyrrolo[3,2-b]pyridine-2-carboxamide]
- IC50 (HCT116-MTAP-KO): 4.4 nM
- IC50 (HCT116-mock-RNA-KO): 605 nM

Structure (SMILES): C[C@H](c1ncccn1)N(Cc1ccc(C2CC2)cn1)C(=O)c1cc2nc(N)c3c(c2[nH]1)COC3 [Example 48, (R)-5-amino-N-((5-cyclopropylpyridin-2-yl)methyl)-N-(1-(pyrimidin-2-yl)ethyl)-6,8-dihydro-1H-furo[3,4-d]pyrrolo[3,2-b]pyridine-2-carboxamide]
- IC50 (HCT116-MTAP-KO): 8.4 nM
- IC50 (HCT116-mock-RNA-KO): 625 nM

Structure (SMILES): COC[C@@H](C)N(Cc1ncc(Br)cc1F)C(=O)c1cc2nc(N)c3c(c2[nH]1)COC3 [Example 49, (R)-5-amino-N-((5-bromo-3-fluoropyridin-2-yl)methyl)-N-(1-methoxypropan-2-yl)-6,8-dihydro-1H-furo[3,4-d]pyrrolo[3,2-b]pyridine-2-carboxamide]
- IC50 (HCT116-MTAP-KO): 6.1 nM
- IC50 (HCT116-mock-RNA-KO): 835 nM

Structure (SMILES): C[C@H]1OCc2c1c(N)nc1cc(C(=O)N(Cc3ccc(Br)cn3)Cc3ncccc3F)[nH]c21 [Example 50, (R)-5-amino-N-((5-bromopyridin-2-yl)methyl)-N-((3-fluoropyridin-2-yl)methyl)-6-methyl-6,8-dihydro-1H-furo[3,4-d]pyrrolo[3,2-b]pyridine-2-carboxamide]
- IC50 (HCT116-MTAP-KO): 8.6 nM
- IC50 (HCT116-mock-RNA-KO): 1360 nM

Structure (SMILES): C[C@H](c1ncccn1)N(Cc1ccc(I)cn1)C(=O)c1cc2nc(N)c3c(c2[nH]1)COC3 [Example 51, (R)-5-amino-N-((5-iodopyridin-2-yl)methyl)-N-(1-(pyrimidin-2-yl)ethyl)-6,8-dihydro-1H-furo[3,4-d]pyrrolo[3,2-b]pyridine-2-carboxamide]
- IC50 (HCT116-MTAP-KO): 7.8 nM
- IC50 (HCT116-mock-RNA-KO): 558 nM

Structure (SMILES): C[C@H](c1ncccn1)N(Cc1ncc(C2CC2)cc1F)C(=O)c1cc2nc(N)c3c(c2[nH]1)COC3 [Example 52, (R)-5-amino-N-((5-cyclopropyl-3-fluoropyridin-2-yl)methyl)-N-(1-(pyrimidin-2-yl)ethyl)-6,8-dihydro-1H-furo[3,4-d]pyrrolo[3,2-b]pyridine-2-carboxamide]
- IC50 (HCT116-MTAP-KO): 4.6 nM
- IC50 (HCT116-mock-RNA-KO): 419 nM

Structure (SMILES): COC[C@@H](C)N(Cc1cnc(C2CC2)cn1)C(=O)c1cc2nc(N)c3c(c2[nH]1)COC3 [Example 53, (R)-5-amino-N-((5-cyclopropylpyrazin-2-yl)methyl)-N-(1-methoxypropan-2-yl)-6,8-dihydro-1H-furo[3,4-d]pyrrolo[3,2-b]pyridine-2-carboxamide]
- IC50 (HCT116-MTAP-KO): 34 nM
- IC50 (HCT116-mock-RNA-KO): > 10000 nM

Structure (SMILES): CCN(C(=O)c1cc2nc(N)c3c(c2[nH]1)COC3)[C@@H]1COCc2cc(C(F)(F)F)ccc21 [Example 54, (S)-5-amino-N-ethyl-N-(7-(trifluoromethyl)isochroman-4-yl)-6,8-dihydro-1H-furo[3,4-d]pyrrolo[3,2-b]pyridine-2-carboxamide]
- IC50 (HCT116-MTAP-KO): 12 nM
- IC50 (HCT116-mock-RNA-KO): 1360 nM

Structure (SMILES): CCN(C(=O)c1cc2nc(N)c3c(c2[nH]1)COC3)[C@H]1COCc2cc(C(F)(F)F)ccc21 [Example 55, (R)-5-amino-N-ethyl-N-(7-(trifluoromethyl)isochroman-4-yl)-6,8-dihydro-1H-furo[3,4-d]pyrrolo[3,2-b]pyridine-2-carboxamide]
- IC50 (HCT116-MTAP-KO): 1640 nM
- IC50 (HCT116-mock-RNA-KO): > 10000 nM

Structure (SMILES): COC[C@@H](C)N(Cc1ncc(C2CC2)cc1F)C(=O)c1cc2nc(N)c3c(c2[nH]1)COC3 [Example 56, (R)-5-amino-N-((5-cyclopropyl-3-fluoropyridin-2-yl)methyl)-N-(1-methoxypropan-2-yl)-6,8-dihydro-1H-furo[3,4-d]pyrrolo[3,2-b]pyridine-2-carboxamide]
- IC50 (HCT116-MTAP-KO): 5 nM
- IC50 (HCT116-mock-RNA-KO): 146 nM

Structure (SMILES): C[C@H]1OC[C@H](N(C)C(=O)c2cc3nc(N)c4c(c3[nH]2)COC4)c2ccc(C(F)(F)F)cc21 [Example 57, 5-amino-N-methyl-N-((1R,4R)-1-methyl-7-(trifluoromethyl)isochroman-4-yl)-6,8-dihydro-1H-furo[3,4-d]pyrrolo[3,2-b]pyridine-2-carboxamide]
- IC50 (HCT116-MTAP-KO): 958 nM
- IC50 (HCT116-mock-RNA-KO): > 10000 nM

Structure (SMILES): C[C@@H]1OC[C@H](N(C)C(=O)c2cc3nc(N)c4c(c3[nH]2)COC4)c2ccc(C(F)(F)F)cc21 [Example 58, 5-amino-N-methyl-N-((1S,4R)-1-methyl-7-(trifluoromethyl)isochroman-4-yl)-6,8-dihydro-1H-furo[3,4-d]pyrrolo[3,2-b]pyridine-2-carboxamide]
- IC50 (HCT116-MTAP-KO): 1080 nM
- IC50 (HCT116-mock-RNA-KO): > 10000 nM

Structure (SMILES): C[C@@H]1OC[C@@H](N(C)C(=O)c2cc3nc(N)c4c(c3[nH]2)COC4)c2ccc(C(F)(F)F)cc21 [Example 59, 5-amino-N-methyl-N-((1S,4S)-1-methyl-7-(trifluoromethyl)isochroman-4-yl)-6,8-dihydro-1H-furo[3,4-d]pyrrolo[3,2-b]pyridine-2-carboxamide]
- IC50 (HCT116-MTAP-KO): 110 nM
- IC50 (HCT116-mock-RNA-KO): > 10000 nM

Structure (SMILES): C[C@H]1OC[C@@H](N(C)C(=O)c2cc3nc(N)c4c(c3[nH]2)COC4)c2ccc(C(F)(F)F)cc21 [Example 60, 5-amino-N-methyl-N-((1R,4S)-1-methyl-7-(trifluoromethyl)isochroman-4-yl)-6,8-dihydro-1H-furo[3,4-d]pyrrolo[3,2-b]pyridine-2-carboxamide]
- IC50 (HCT116-MTAP-KO): 7.3 nM
- IC50 (HCT116-mock-RNA-KO): 857 nM

Structure (SMILES): C[C@@H](c1cnccn1)N(Cc1ncc(Br)cc1F)C(=O)c1cc2nc(N)c3c(c2[nH]1)COC3 [Example 61, (S)-5-amino-N-((5-bromo-3-fluoropyridin-2-yl)methyl)-N-(1-(pyrazin-2-yl)ethyl)-6,8-dihydro-1H-furo[3,4-d]pyrrolo[3,2-b]pyridine-2-carboxamide]
- IC50 (HCT116-MTAP-KO): 808 nM
- IC50 (HCT116-mock-RNA-KO): > 10000 nM

Structure (SMILES): C[C@H](c1cnccn1)N(Cc1ncc(Br)cc1F)C(=O)c1cc2nc(N)c3c(c2[nH]1)COC3 [Example 62, (R)-5-amino-N-((5-bromo-3-fluoropyridin-2-yl)methyl)-N-(1-(pyrazin-2-yl)ethyl)-6,8-dihydro-1H-furo[3,4-d]pyrrolo[3,2-b]pyridine-2-carboxamide]
- IC50 (HCT116-MTAP-KO): 17 nM
- IC50 (HCT116-mock-RNA-KO): 2080 nM

Structure (SMILES): CN(C(=O)c1cc2nc(N)c3c(c2[nH]1)COC3)[C@@H]1COCc2cc(Br)ccc21 [Example 63, (S)-5-amino-N-(7-bromoisochroman-4-yl)-N-methyl-6,8-dihydro-1H-furo[3,4-d]pyrrolo[3,2-b]pyridine-2-carboxamide]
- IC50 (HCT116-MTAP-KO): 22 nM
- IC50 (HCT116-mock-RNA-KO): 2500 nM

Structure (SMILES): CN(C(=O)c1cc2nc(N)c3c(c2[nH]1)COC3)[C@H]1COCc2cc(Br)ccc21 [Example 64, (R)-5-amino-N-(7-bromoisochroman-4-yl)-N-methyl-6,8-dihydro-1H-furo[3,4-d]pyrrolo[3,2-b]pyridine-2-carboxamide]
- IC50 (HCT116-MTAP-KO): 362 nM
- IC50 (HCT116-mock-RNA-KO): > 10000 nM

Structure (SMILES): Nc1nc2cc(C(=O)N(Cc3ncc(C4CC4)cc3F)C3CCCC3)[nH]c2c2c1COC2 [Example 65, 5-amino-N-cyclopentyl-N-((5-cyclopropyl-3-fluoropyridin-2-yl)methyl)-6,8-dihydro-1H-furo[3,4-d]pyrrolo[3,2-b]pyridine-2-carboxamide]
- IC50 (HCT116-MTAP-KO): 17 nM
- IC50 (HCT116-mock-RNA-KO): 2460 nM

Structure (SMILES): CC(C)N(Cc1ncc(C2CC2)cc1F)C(=O)c1cc2nc(N)c3c(c2[nH]1)COC3 [Example 66, 5-amino-N-((5-cyclopropyl-3-fluoropyridin-2-yl)methyl)-N-isopropyl-6,8-dihydro-1H-furo[3,4-d]pyrrolo[3,2-b]pyridine-2-carboxamide]
- IC50 (HCT116-MTAP-KO): 20 nM
- IC50 (HCT116-mock-RNA-KO): 2520 nM

Structure (SMILES): CC[C@@H](C)N(Cc1ncc(C2CC2)cc1F)C(=O)c1cc2nc(N)c3c(c2[nH]1)COC3 [Example 67, (R)-5-amino-N-(sec-butyl)-N-((5-cyclopropyl-3-fluoropyridin-2-yl)methyl)-6,8-dihydro-1H-furo[3,4-d]pyrrolo[3,2-b]pyridine-2-carboxamide]
- IC50 (HCT116-MTAP-KO): 4.2 nM
- IC50 (HCT116-mock-RNA-KO): 453 nM

Structure (SMILES): C[C@H]1OCc2c1c(N)nc1cc(C(=O)N(C)[C@@H]3COCc4cc(C(F)(F)F)ccc43)[nH]c21 [Example 68, (R)-5-amino-N,6-dimethyl-N—((S)-7-(trifluoromethyl)isochroman-4-yl)-6,8-dihydro-1H-furo[3,4-d]pyrrolo[3,2-b]pyridine-2-carboxamide]
- IC50 (HCT116-MTAP-KO): 9 nM
- IC50 (HCT116-mock-RNA-KO): 1690 nM

From patent publication US20240368177A1, “5-AMINO-6,8-DIHYDRO-1H-FURO[3,4-d]PYRROLO[3,2-b]PYRIDINE-2-CARBOXAMIDE DERIVATIVES AS MTA-COOPERATIVE INHIBITORS OF PRMT5” (BeiGene Switzerland GmbH, priority 2023, published 2024)
